Source: US20090202430A1, “COMPOSITION FOR CYTOCOMPATIBLE, INJECTABLE, SELF-GELLING POLYSACCHARIDE SOLUTIONS FOR ENCAPSULATING AND DELIVERING LIVE CELLS OR BIOLOGICALLY ACTIVE FACTORS” (BIO SYNTECH CANADA INC., priority 2002, published 2009)

How the values were obtained:
cells = test: Viability of cells maintained in cross-linker solution (FIG. 4A); format: cell-based; details: cells incubated in 0.3% peroxide for the same time period (up to 72 hours)
Method: FIG. 4A illustrates viability of cells maintained in hydroxyethyl cellulose, or glyoxal cross-linker for over an hour;
In FIG. 4A, high viability is maintained after encapsulation in cross-linked chitosan with glyoxal, or hydroxyethyl cellulose-glyoxal. FIG. 4A illustrates that the active hydroxyethyl cellulose-cross linker is cytocompatible. Cells incubated up to 72 hours in active cross-linker remain over 95% viable. Cells incubated in 0.3% peroxide for the same time period are 100% non-viable. After mixing with chitosan and injecting through a syringe with a 26-gauge needle, encapsulated cells in solid gel remain over 95% viable. After mixing with chitosan and pouring into a petri, encapsulated cells in solid gel remain over 95% viable after 1 day of culture.

encapsulated cells = test: MTT assay (live cell metabolism) and Hoechst DNA assay (cell proliferation) of cells in cross-linked chitosan gels (FIG. 4B); format: cell-based; details: MTT and Hoechst DNA assays, after encapsulation
Text: In FIG. 4B, as shown by MTT assay on day 1 encapsulated cells, hydroxyethyl cellulose offers additional protection to cells immediately post-encapsulation.

Compound | non-viable cells (cells) [%] | viability and proliferation of cells encapsulated in chitosan gel (encapsulated cells)
OO [peroxide] | 100 | 
O=CC=O [glyoxal] |  | viable after encapsulation and proliferate in the gel
